Measured values reported in patent US8946260B2, “17α-hydroxylase/C17,20-lyase inhibitors” (Novartis AG, priority 2010, dated 2015).
Counter-ions that a name gives are not always drawn.

What follows are compounds tested against T1, recombinant Human CYP17 enzyme (17-20 lyase) (Homo sapiens, UniProt P05093) (assay: Cytochrome P450, 17-20 lyase (CYP17-lyase) assay, 17-α-hydroxy pregnenolone [21-3H] as substrate). Conditions: not given.
T1 construct: made in house; host or cells: A549 cells, adenoviral expression system; purified cell membrane preparations
T1 sequence (P05093 1-508): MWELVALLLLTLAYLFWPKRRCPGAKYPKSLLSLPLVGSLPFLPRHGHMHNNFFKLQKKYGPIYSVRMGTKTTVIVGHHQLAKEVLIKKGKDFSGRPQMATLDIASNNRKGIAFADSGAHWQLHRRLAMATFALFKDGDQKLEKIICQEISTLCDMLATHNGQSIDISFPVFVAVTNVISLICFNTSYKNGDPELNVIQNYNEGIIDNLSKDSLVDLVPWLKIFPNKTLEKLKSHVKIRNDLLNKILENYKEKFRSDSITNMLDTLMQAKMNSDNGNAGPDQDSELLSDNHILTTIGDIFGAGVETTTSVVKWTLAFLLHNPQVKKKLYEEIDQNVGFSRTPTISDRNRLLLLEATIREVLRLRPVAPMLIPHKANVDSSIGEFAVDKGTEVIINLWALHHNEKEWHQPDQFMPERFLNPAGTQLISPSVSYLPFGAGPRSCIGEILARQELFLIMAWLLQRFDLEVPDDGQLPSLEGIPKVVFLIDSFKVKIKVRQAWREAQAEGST
Assay type: biochemical
Description: 1) Cytochrome P450, 17-20 Lyase (CYP17-Lyase) Assay Development Using Recombinant Human CYP17 Enzyme and 17-α-Hydroxy Pregnenolone [21-3H] as the Substrate.
Cytochrome P450, 17-α-Hydroxylase, 17-20 lyase (CYP17) is a multi functional enzyme that plays a key role in the biosynthesis of steroid hormones. It catalyses both conventional hydroxylation and also the carbon-carbon bond cleavage reactions (Peter Lee-Robichaud et al, Biochem. J, (1997) 321, 857-63). In the hydroxylation reaction, it converts progesterone and pregnenolone to the corresponding hydroxylated products 17-α-hydroxy progesterone and 17-α-hydroxy pregnenolone. In the lyase reaction, it catalyzes the conversion of these hydroxylated substrates to Androstenedione and Dehydroepiandrosterone (DHEA) respectively. In the Cyp17 lyase assay described here, the conversion of 17-α-hydroxy pregnenolone to Dehydroepiandrosterone and acetic acid is being monitored.
Assay method was adopted from a published protocol with some modifications to suit our requirements (Dmitry N Grigoryev et al, Analytical Biochemistry, (1999) 267, 319-330). The conversion of 17-α-hydroxy pregnenolone to Dehydroepiandrosterone is accompanied by the release of acetic acid. In the Cyp17 lyase assay, 17-α-hydroxy pregnenolone labeled with tritium (3H) at position 21 is used as the substrate. Chloroform extraction removes the radioactive steroids and acetic acid is taken into aqueous layer. The tritiated acetic acid released in the assay thus extracted is quantified to determine the enzyme activity.
Initial buffer conditions were, 50 mM Phosphate buffer, pH 7.5 was used as the starting buffer for Cyp17 lyase activity based on the data published in US patent publication No. US2004/0198773 A1. […] Human Cyp 17 gene was cloned and expressed in Adenoviral expression system in A549 cell lines. The purified cell membrane preparations were used as the source for Human CYP17 enzyme. Total protein concentration: 8 mg/mL.
For routine screening, the assay was set up with 16 μg of enzyme in 50 μL reaction volume. 17α-hydroxy pregnenolone [21-3H] was added to a final concentration of 0.25 μM. NADPH is used at a final concentration of 4.2 mM. Total reaction volume was made up to 50 μL with 50 mM Phosphate buffer pH 7.5. The reaction mixture was incubated at room temperature for 90 minutes with gentle shaking. The reaction was stopped by the addition of 100 μL of buffer. 500 μL of 5% freshly prepared activated charcoal was added to the solution and mixed well by vortexing. The samples were centrifuged at 17568×g for 5 minutes. (14000 rpm). The supernatant was carefully transferred to fresh tube and 1.3 mL of scintillation fluid was added, mixed by vortexing.
The radioactivity was measured in a 1450 MicroBeta TriLux™ scintillation counter from Wallac-Perkin Elmer®, USA. The measurements were carried out in 2.0 mL Eppendorf™ tubes. Each tube was counted for 1 minute. The amount of tritiated acetic acid released is proportional to the lyase activity. Percent lyase activity in presence of inhibitor was calculated using the formula given below.
[formula] • Sample: Enzyme reaction in presence of inhibitor. • Positive control: Enzyme reaction without inhibitor but containing DMSO at 1% final concentration. • Blank—Contains all reagents except enzyme. • % Inhibition=100%−% Lyase activity
For IC50 determination, the % inhibition was plotted as a function of inhibitor concentration. The data was fitted to sigmoidal equation using Graphpad Prism® software IV to generate IC50 values.

Compound	IC50 [nM]
CCn1c2c(c3cc(F)ccc31)C(=O)N(c1cnccc1C)CC2 [Example 59A, 5-ethyl-8-fluoro-2-(4-methylpyridin-3-yl)-2,3,4,5-tetrahydro-1H-pyrido[4,3-b]indol-1-one]	29

Same assay, conditions: at 10 μM; read-out: hCYP17 Lyase % Inh

inhibition at 10 µM [%]	Compound
63	Cc1ccncc1N1CCc2ccc(Oc3ncc(F)cn3)cc2C1=O [Example 37A, 7-(5-fluoropyrimidin-2-yloxy)-2-(4-methylpyridin-3-yl)-3,4-dihydroisoquinolin-1(2H)-one]
76	Cc1ccncc1N1CCc2ccc(F)c(NCC3CC3)c2C1=O [Example 39A, 8-(cyclopropylmethylamino)-7-fluoro-2-(4-methylpyridin-3-yl)-3,4-dihydroisoquinolin-1(2H)-one, acetate salt]
12	COc1cc2c(cc1OC)C(=O)N(c1cnccc1C)CC2 [Example 40A, 6,7-Dimethoxy-2-(4-methyl-pyridin-3-yl)-3,4-dihydro-2H-isoquinolin-1-one]
10	Cc1ccncc1N1CCc2cc(Cl)c(Cl)cc2C1=O [Example 41A, 6,7-dichloro-2-(4-methylpyridin-3-yl)-3,4-dihydroisoquinolin-1 (2H)-one]
8	COc1ccc(F)c2c1C(=O)N(c1cnccc1C)CC2 [Example 44A, 5-fluoro-8-methoxy-2-(4-methylpyridin-3-yl) 3,4-dihydroisoquinolin-1(2H)-one]

Same assay, conditions: human CYP17 lyase; substrate 0.25 μM; room temperature, 90 minutes

Lyase IC 50 nM Human	Compound
NOT ACTIVE	O=c1c2c(ccn1-c1cnccc1C(F)(F)F)[nH]c1ccccc12 [Example 63A, 2-(4-(trifluoromethyl)pyridin-3-yl)-2,5-dihydro-1H-pyrido[4,3-b]indol-1-one]

Same assay, conditions: human CYP17 lyase; substrate 0.25 μM; room temperature, 90 minutes; read-out: Lyase IC 50 nM Human

IC50 [nM]	Compound
13	Cc1ccncc1N1CCc2ccc(Cl)c(F)c2C1=O [Example 33A, 7-chloro-8-fluoro-2-(4-methylpyridin-3-yl)-3,4-dihydroisoquinolin-1(2H)-one]
149	Cc1ccncc1N1CCc2ccc(F)c(Cl)c2C1=O [Example 34A, 8-chloro-7-fluoro-2-(4-methylpyridin-3-yl)-3,4-dihydroisoquinolin-1(2H)-one]
54	O=c1c2cc(C(F)(F)F)ccc2ccn1-c1cccnc1 [Example 36A, 2-(pyridin-3-yl)-7-(trifluoromethyl)isoquinolin-1(2H)-one]
23	CCn1c2c(c3ccccc31)CCN(c1cnccc1C)C2=O [Example 38A, 9-ethyl-2-(4-methylpyridin-3-yl)-2,3,4,9-tetrahydro-1H-pyrido[3,4-b]indol-1-one]
55	CCn1c2c(c3ccccc31)CC(C)N(c1cccnc1)C2=O (stereo not shown) [Example 42A, 9-ethyl-3-methyl-2-(pyridin-3-yl)-2,3,4,9-tetrahydro-1H-pyrido[3,4-b]indol-1-one]
15	CC1Cc2ccc(C(F)(F)F)cc2C(=O)N1c1cccnc1 (stereo not shown) [Example 43A, 3-Methyl-2-pyridin-3-yl-7-trifluoromethyl-3,4-dihydro-2H-isoquinolin-1-one]
211	Cc1ccncc1N1CCc2c(sc3ccc(F)cc23)C1=O [Example 45A, 6-Fluoro-2-(4-methyl-pyridin-3-yl)-3,4-dihydro-2H-benzo[4,5]thieno[2,3-c]pyridin-1-one]
44	CCn1c2c(c3ccccc31)CC(C)N(c1cnccc1C)C2=O (stereo not shown) [Example 46A, 9-Ethyl-3-methyl-2-(4-methyl-pyridin-3-yl)-2,3,4,9-tetrahydro-b-carbolin-1-one]
12	Cc1ccncc1N1CCc2ccc(C(F)(F)F)c(F)c2C1=O [Example 47A, 8-Fluoro-2-(4-methyl-pyridin-3-yl)-7-trifluoromethyl-3,4-dihydro-2H-isoquinolin-1-one]
16	Cc1ccncc1N1C(=O)c2cc(C(F)(F)F)ccc2CC1C (stereo not shown) [Example 48A, 3-Methyl-2-(4-methyl-pyridin-3-yl)-7-trifluoromethyl-3,4-dihydro-2H-isoquinolin-1-one]
159	Cc1ccncc1N1CCc2cc(F)c(F)cc2C1=O [Example 49A, 6,7-difluoro-2-(4-methylpyridin-3-yl)-3,4-dihydroisoquinolin-1(2H)-one]
6	Cc1ccncc1N1CCc2sc3ccc(F)cc3c2C1=O [Example 50A, 8-Fluoro-2-(4-methylpyridin-3-yl)-3,4-dihydrobenzo[4,5]thieno[3,2-c]pyridin-1(2H)-one]
22	Cc1ccncc1N1CCc2ccc(OC(F)(F)F)cc2C1=O [Example 51A, 2-(4-Methylpyridin-3-yl)-7-(trifluoromethoxy)-3,4-dihydroisoquinolin-1(2H)-one]
556	O=C1c2cc(C(F)(F)F)ccc2CCN1c1cnccc1CN1CCCC1 [Example 52A, 2-(4-(Pyrrolidin-1-ylmethyl)pyridin-3-yl)-7-(trifluoromethyl)-3,4-dihydroisoquinolin-1(2H)-one]
50	O=C1c2cc(C(F)(F)F)ccc2CCN1c1cnccc1CNC1CC1 [Example 53A, 2-(4-((cyclopropylamino)methyl)pyridin-3-yl)-7-(trifluoromethyl)-3,4-dihydroisoquinolin-1(2H)-one]
19	Cn1cncc1N1CCc2ccc(C(F)(F)F)cc2C1=O [Example 54A, 2-(1-methyl-1H-imidazol-5-yl)-7-(trifluoromethyl)-3,4-dihydroisoquinolin-1(2H)-one]
125	O=C1c2cc(Cl)c(Cl)cc2CCN1c1cnccc1C(F)(F)F [Example 55A, 6,7-dichloro-2-(4-(trifluoromethyl)pyridin-3-yl)-3,4-dihydroisoquinolin-1(2H)-one]
1110	O=C1c2ccc(C(F)(F)F)cc2CCN1c1cncc(F)c1 [Example 56A, 2-(5-fluoropyridin-3-yl)-6-(trifluoromethyl)-3,4-dihydroisoquinolin-(2H)-one]
548	O=C1c2c(sc3ccc(F)cc23)CCN1c1cnccc1C(F)(F)F [Example 57A, 8-Fluoro-2-(4-trifluoromethylpyridine-3-yl)-3,4-dihydro-2H-benzo[4,5]thieno[3,2-c]pyridin-1-one]
218	O=C1c2c(sc3ccccc23)CCN1c1cnccc1C(F)(F)F [Example 58A, 2-(4-trifluoromethylpyridine-3-yl)-3,4-dihydro-2H-benzo[4,5]thieno[3,2-c]pyridin-1-one]
9	Cc1ccncc1N1CCc2[nH]c3ccc(F)cc3c2C1=O [Example 60A, 8-fluoro-2-(4-methylpyridin-3-yl)-2,3,4,5-tetrahydro-1H-pyrido[4,3-b]indol-1-one]
1510	Cc1ccncc1N1CCc2c([nH]c3ccccc23)C1=O [Example 61A, 2-(4-methylpyridin-3-yl)-2,3,4,9-tetrahydro-1H-pyrido[3,4-b]indol-1-one]
17	Cc1ccncc1-n1ccc2[nH]c3ccccc3c2c1=O [Example 62A, 2-(4-methylpyridin-3-yl)-2,5-dihydro-1H-pyrido[4,3-b]indol-1-one]
829	O=c1c2c(ccn1-c1cnccc1C(F)(F)F)[nH]c1ccc(F)cc12 [Example 64A, 8-fluoro-2-(4-(trifluoromethyl)pyridin-3-yl)-2,5-dihydro-1H-pyrido[4,3-b]indol-1-one]
